Data set [1] is described as follows: Oral pharmacokinetics in rats, plasma d-amphetamine by ELISA. Particulars: for Percent AUC / Percent Cmax: Oral; for Bioequivalence with amphetamine: rat, oral. (An ELISA detects its analyte on a solid surface through an enzyme-linked reagent.)
The conditions of data set [2]: cited from earlier work; for Blood level: 12.5 mg dose.
Data set [3] in a line: Oral bioavailability of hydrocodone conjugates in rats, LC/MS/MS. Particulars: male, Sprague-Dawley, rat, plasma, po.
The nature of data set [4]: Intranasal bioavailability of hydrocodone conjugates in rats, LC/MS/MS. The note with it: male, Sprague-Dawley, rat, plasma, 1 mg/kg.
A short description of data set [5]: Intravenous bioavailability of hydrocodone conjugates in rats, LC/MS/MS.
The nature of data set [6]: Oral plasma levels of oxycodone conjugates in rats, ELISA. The note with it: oral 2 mg/kg.
Data set [7] in a line: Intranasal plasma levels of oxycodone conjugates in rats, ELISA. Particulars: intranasal 2 mg/kg.
Setting [8] is: relative to amphetamine (first value where two are given).
[9] abbreviates: intravenous, 1 mg/kg hydrocodone base content.
[10] abbreviates: male, Sprague-Dawley, rat, plasma, iv, 1 mg/kg.
Where [11] appears, read: relative to amphetamine, second of two values printed in the cell.

Like-named read-outs stand apart in the source and are kept apart here.

Data on 21 compounds can be found in patent US7375083B2, “Pharmaceutical compositions for prevention of overdose or abuse” (Shire LLC, priority 2003, dated 2008).

In the case of `CC(Cc1ccccc1)NC(=O)[C@H](Cc1ccccc1)NC(=O)[C@@H](N)Cc1ccccc1` (some centres unmarked) [FF-Amp], in data set [1] (setting [8]), the “Percent AUC” value amounted to 27% and the “Percent Cmax” value came out at 64%.
The matching figures for `CC(Cc1ccccc1)NC(=O)CNC(=O)CN` (centres unmarked) [GG-Amp]: 79% and 88%.
For `CC(Cc1ccccc1)NC(=O)C(N)Cc1cnc[nH]1` (centres unmarked) [H-Amp], in data set [1] (setting [8]), the “Percent AUC” value is 16% and the “Percent Cmax” value is given as 21%.
In the case of `COc1ccc2c3c1O[C@H]1C(=O)CC[C@H]4[C@@H](C2)N(C)CC[C@]314` [Hydrocodone, reference compound], in data set [2] (in vivo), the Therapeutic plasma concentration is 1 to 30 ng/mL and the Toxic plasma concentration result is given as “greater than 100 ng/mL”. Moreover, in data set [3] (1 mg/kg), the area under the curve (AUC) (commonly the area under the concentration-time curve, a measure of exposure) worked out at 45.1 ng·h/mL; the Cmax (commonly the peak of the concentration-time curve) came to 114 ng/mL; the concentration at 0 h is 0 ng/mL; the concentration at 0.1 h stood at 114 ng/mL. In data set [3] (1 mg/kg), this compound had a concentration at 0.5 h of 14.3 ng/mL, a concentration at 1 h of 7 ng/mL, a concentration at 2 h of 2.6 ng/mL and a concentration at 4 h of 1 ng/mL. Further, in data set [3] (2 mg/kg), the area under the curve (AUC) is 38.2 ng·h/mL, the peak level (Cmax) was 60.3 ng/mL, the concentration at 0 h was found to be 0 ng/mL and the concentration at 0.1 h came out at 60.3 ng/mL. In data set [3] (2 mg/kg), this compound had a concentration at 0.5 h of 15.6 ng/mL, a concentration at 1 h of 12.9 ng/mL, a concentration at 2 h of 3.4 ng/mL and a concentration at 4 h of 1.3 ng/mL. In data set [3] (5 mg/kg), this compound gave an AUC of 234 ng·h/mL, a peak concentration (Cmax) of 629 ng/mL, a concentration at 0 h of 0 ng/mL and a concentration at 0.1 h of 629 ng/mL. Besides, in data set [3] (5 mg/kg), the concentration at 0.5 h was 74.3 ng/mL, the concentration at 1 h was 80.8 ng/mL, the concentration at 2 h stood at 18.4 ng/mL and the concentration at 4 h stood at 4.9 ng/mL. In data set [3] (25 mg/kg), this compound had an exposure (AUC) of 419 ng·h/mL, a peak concentration (Cmax) of 409 ng/mL, a concentration at 0 h of 0 ng/mL and a concentration at 0.1 h of 409 ng/mL. In data set [3] (25 mg/kg), this compound displayed a concentration at 0.5 h of 154 ng/mL, a concentration at 1 h of 86.2 ng/mL, a concentration at 2 h of 83.3 ng/mL and a concentration at 4 h of 57.8 ng/mL. In addition, in data set [4] (iv), the AUC stood at 74.7 ng·h/mL and the peak level (Cmax) was 543 ng/mL. In data set [4] (other: intranasal), this compound came in with a concentration at 0 min of 0 ng/mL, a concentration at 5 min of 441 ng/mL, a concentration at 15 min of 543 ng/mL and a concentration at 30 min of 227 ng/mL. The same compound showed a concentration at 60 min in data set [4] (other: intranasal) of 96 ng/mL. In data set [5] (setting [9]), the “HC (hydrocodone) AUC, Percent relative to hydrocodone bitartrate” value came out at 100% and the “HC (hydrocodone) Cmax, Percent relative to hydrocodone bitartrate” value was found to be 100%. Moreover, in data set [5] (setting [10]), the AUC turned out to be 24.1 ng·h/mL and the concentration peaked (Cmax) at 43 ng/mL.
For the compound `CC(Cc1ccccc1)NC(=O)CNC(=O)[C@@H](N)CCCCN` (some centres unmarked) [KG-Amp], in data set [1] (setting [8]), the “Percent AUC” value is 69% and the “Percent Cmax” value is 71%.
In the case of `CC(C)CC(N)C(=O)NC(C)Cc1ccccc1` [L-Amp], in data set [1] (setting [8]), the “Percent AUC” value is 65% and the “Percent Cmax” value came to 81%.
For `CC(C)C[C@H](N)C(=O)N[C@@H](CCC(=O)O)C(=O)NC(C)Cc1ccccc1` (some centres unmarked) [LE-Amp], in that order: 40% and 28%.
Take `COc1ccc2c3c1O[C@H]1C(=O)CC[C@@]4(O)[C@@H](C2)N(C)CC[C@]314` [Oxycodone]: in data set [2] (in vivo), the Therapeutic plasma concentration is 10 to 100 ng/mL and the Toxic plasma concentration entry was “greater than 200 ng/mL”.
Consider `CC(Cc1ccccc1)NC(=O)C(N)Cc1ccccc1` (centres unmarked) [Phe-Amp, 2-amino-3-phenylpropanoic acid-(1-methyl-2-phenylethyl)-amide], for which the Bioequivalence with amphetamine entry in data set [1] is on record as “bioequivalent with amphetamine”.
Take `CC(Cc1ccccc1)NC(=O)C(N)CO` (centres unmarked) [S-Amp]: in data set [1] (setting [8]), the “Percent AUC” value was determined as 79% and the “Percent Cmax” value was determined as 62%. For the same compound, in data set [1] (setting [11]), the “Percent AUC” value worked out at 55% and the “Percent Cmax” value is given as 75%.
As for `CC(Cc1ccccc1)NC(=O)C(N)CO` (centres unmarked) [Ser-Amp, 2-amino-3-hydroxylpropanoic acid-(1-methyl-2-phenylethyl)-amide], in data set [1], the Bioequivalence with amphetamine result is given as “not bioequivalent with amphetamine”.
For `COc1ccc2c3c1O[C@H]1C(OC(=O)[C@@H](NC(=O)[C@@H]4CCCN4C(=O)[C@@H](N)CCC(=O)O)C(C)C)=CC[C@@]4(OC(=O)[C@@H](NC(=O)[C@@H]5CCCN5C(=O)[C@@H](N)CCC(=O)O)C(C)C)[C@@H](C2)N(C)CC[C@]314` [[Glu-Pro-Val]2-OC], in data set [6], the “% AUC” value turned out to be 142% and the “% Cmax” value worked out at 134%. In data set [7], the “% AUC” value was determined as 56% and the “% Cmax” value was determined as 65%.
The matching figures for `COc1ccc2c3c1O[C@H]1C(OC(=O)[C@@H](NC(=O)[C@H](Cc4ccc(O)cc4)NC(=O)[C@@H](N)CCC(=O)O)C(C)C)=CC[C@@]4(OC(=O)[C@@H](NC(=O)[C@H](Cc5ccc(O)cc5)NC(=O)[C@@H](N)CCC(=O)O)C(C)C)[C@@H](C2)N(C)CC[C@]314` [[Glu-Tyr-Val]2-OC]: 115%, 103%, 18% and 20%.
With `COc1ccc2c3c1O[C@H]1C(OC(=O)[C@@H](NC(=O)[C@H](CCC(=O)O)NC(=O)CN)C(C)C)=CC[C@@]4(OC(=O)[C@@H](NC(=O)[C@H](CCC(=O)O)NC(=O)CN)C(C)C)[C@@H](C2)N(C)CC[C@]314` [[Gly-Glu-Val]2-OC], in data set [6], the “% AUC” value is listed as 93% and the “% Cmax” value amounted to 61%. In data set [7], the “% AUC” value is on record as 29% and the “% Cmax” value is given as 48%.
The matching figures for `COc1ccc2c3c1O[C@H]1C(OC(=O)[C@@H](NC(=O)[C@H](Cc4ccc(O)cc4)NC(=O)CN)C(C)C)=CC[C@@]4(OC(=O)[C@@H](NC(=O)[C@H](Cc5ccc(O)cc5)NC(=O)CN)C(C)C)[C@@H](C2)N(C)CC[C@]314` [[Gly-Tyr-Val]2-OC]: 92%, 99%, 56% and 54%.
The matching figures for `CC[C@H](C)[C@H](N)C(=O)N[C@@H](Cc1ccc(O)cc1)C(=O)N[C@H](C(=O)OC1=CC[C@@]2(OC(=O)[C@@H](NC(=O)[C@H](Cc3ccc(O)cc3)NC(=O)[C@@H](N)[C@@H](C)CC)C(C)C)[C@H]3Cc4ccc(OC)c5c4[C@@]2(CCN3C)[C@H]1O5)C(C)C` [[Ile-Tyr-Val]2-OC]: 71%, 82%, 3% and 4%.
Turning to `COc1ccc2c3c1O[C@H]1C(OC(=O)[C@@H](NC(=O)[C@H](Cc4ccc(O)cc4)NC(=O)[C@@H](N)CC(C)C)C(C)C)=CC[C@@]4(OC(=O)[C@@H](NC(=O)[C@H](Cc5ccc(O)cc5)NC(=O)[C@@H](N)CC(C)C)C(C)C)[C@@H](C2)N(C)CC[C@]314` [[Leu-Tyr-Val]2-OC], the “% AUC” value turned out to be 131% in data set [6] and 4% in data set [7]. The “% Cmax” value in data set [6] worked out at 120%; in data set [7], 5%.
The matching figures for `COc1ccc2c3c1O[C@H]1C(OC(=O)[C@@H](NC(=O)[C@H](CCC(=O)O)NC(=O)[C@@H]4CCCN4)C(C)C)=CC[C@@]4(OC(=O)[C@@H](NC(=O)[C@H](CCC(=O)O)NC(=O)[C@@H]5CCCN5)C(C)C)[C@@H](C2)N(C)CC[C@]314` [[Pro-Glu-Val]2-OC]: 90%, 34%, 82% and 46%.
On to `COc1ccc2c3c1O[C@H]1C(OC(=O)[C@@H](NC(=O)CNC(=O)[C@@H](N)CO)C(C)C)=CC[C@@]4(OC(=O)[C@@H](NC(=O)CNC(=O)[C@@H](N)CO)C(C)C)[C@@H](C2)N(C)CC[C@]314` [[Ser-Gly-Val]2-OC], for which, in data set [6], the “% AUC” value is given as 90% and the “% Cmax” value is reported as 92%. Besides, in data set [7], the “% AUC” value amounted to 64% and the “% Cmax” value worked out at 73%.
With `CC(N)Cc1ccccc1` (centres unmarked) [amphetamine], the Steady-state blood level in data set [2] (addicts orally consuming an average of 1000 mg per day) was 2000 to 3000 ng/mL. Further, in data set [2] (in vivo), the “Blood level at which peripheral effects (increased heart rate) start” value is 20 ng/mL. Moreover, the Peak blood concentration in data set [2] (single oral dose of 10 mg, 2 hours) was 35 ng/mL.
Take `CN[C@@H](C)Cc1ccccc1` [methamphetamine]: the Urine concentration in data set [2] (10 mg, first 24 hours) was 500-4,000 ng/mL. Also, the Blood level result in data set [2] (6 hours) was “about 16 ng/mL”; in data set [2] (24 hours) it was “about 10 ng/mL”. Further, the “Amphetamine concentration of methamphetamine abusers, average” value in data set [2] (abusers) was 1,800 ng/mL. In data set [2] (abusers), the “Methamphetamine concentration of methamphetamine abusers, average” value is recorded as 14,200 ng/mL. Further, the “Amphetamine concentration of methamphetamine abusers” value in data set [2] (abusers, range) is recorded as 1,000-9,000 ng/mL. The “Methamphetamine concentration of methamphetamine abusers” value in data set [2] (abusers, range) is 2,400-33,300 ng/mL. Also, the results for the Estimated lethal dose in data set [2] (adults) and in data set [2] (children) were 1 g and 0.1 g, respectively. For the same compound, the Maximum blood concentration in data set [2] (single dose of 10 mg, one hour) is 30 ng/mL.
